The source of these data is patent publication US8309766B2 (Obschestvo S. Organichennoi Otvetstvennostiyu …, priority 2005, dated 2012).

The test system of one data set is mice, forced swimming. The data set is described as follows: "Behavioral despair" test according to Porsolt. The data set is classed as in vivo. The conditions noted are these: 50 mg/kg orally. Here is the method: The “behavioral despair” test according to Porsolt [R. D. Porsolt, A. Bertin and M. Jalfre.//in mice: A primary Screening Test for Antidepressants. Arch. Int. Pharmacodyn., 1977, 229, p. 327-336] is a predictive test for drugs with antidepressant action.
Stress state in mice (weighing 27-30 grams) is induced by forced swimming. Animals are placed into a cylinder (height 25 cm, diameter 10 cm) filled to ⅓ with water at temperature 21-23° C. The animals cannot escape from the cylinder by themselves. Following a short time of activity the animals develop a so called “behavioral depression” characterized by hovering of animals, immobilization duration of which can be fixed. The experiment is carried out in two days. One a first day, animals are placed into the cylinder for 15 minutes (pre-test). After removal from water, the animals are dried and preparations under testing are administered. At 24 hours, the preparations are administered again and one hour later the animals are placed into the cylinder for 6 minutes. During first two minutes the animals are actively swimming; during the subsequent four minutes, behavioral depression develops manifested by immobilization (hovering) which is fixed for 4 minutes and is measure in seconds. Compound IX and the reference antidepressant drug Fluoxetin were administered orally at a dose 50 mg/kg.

The next data set deals with HL-60 cells. The conditions noted are these: Chen et al., Chinese Pharmaceutical Journal 2001; cited from earlier work.
Data set [1] deals with "acetic contortions" in mice. The data set is described as follows: Effect on analgetic action of Tramal and Analgin on the model "acetic contortions". It is filed as in vivo, white mongrel mice. Here is the method:
(§1) The tests were conducted on males of white mongrel mice weighing 22-24 grams. The specific pain response (“contortions”) were elicited by intraperitoneal administration to mice of 0.75% acetic acid solution. The following signs were taken into consideration: the number of seizure contractions of abdominal muscles accompanied by stretching the hind limbs and sagging the back. Analgetic effect was assessed by decrease in the number of contortions in animals in percent to the control for 15 minutes post administration of acetic acid. The technique of the tests is disclosed in Koster R., Anderson M., de Beer B.//Fed. Proc. 1959. V. 18. P. 412. Compounds under testing were administered intraperitoneally (using a probe) at a dose 10 μg/kg 60 minutes prior to injection of the acid. Diclofenac (10 mg/kg) was used as a reference drug. Analgetic effect was calculated according to the formula: […]
The studies were carried out in accordance with the technique presented in Example 18.

A further data set concerns gastric mucosa of rats. The data set is described as follows: Ulcerogenic effect on gastric mucosa. It is filed as in vivo, outbreed rats. The conditions noted are these: 30 mg/kg once intragastrally, at 24 hours, M ± m. The protocol: The tests were carried out on females of outbreed rats weighing 300-320 grams. The compounds tested were administered once intragastrally at a dose 30 mg/kg to rats deprived of feed for 24 hours prior to the test. Animals in the control group were administered distilled water in the same volume. At 24 hours the animals were sacrificed and stomachs were extracted. An empty stomach was filled with 2% formalin solution and it was placed into a beaker with formalin. 30 minutes later, the stomach was opened along the great curvature, expanded on a slide, fixed and washed with distilled water. Using the magnifying glass MBS-9 (8-fold magnification) length and width of gastric mucosa defects was measured and area in mm^2 was calculated (1 division of the magnifying glass ruler=0.1 mm). Ulcerogenic effect of a substance was assessed by ulcerous lesion area of gastric mucosa according to the technique presented in Rukovodstvo po experimental'nomu (doklinicheskomu) izucheniju novykh pharmacologicheskikh veshchestv (the Guide on Experimental (pre-clinical) Study of Novel Pharmacological Substances)./Moscow. “Remedium” publishers. 2000, 398 pages.

The subject of data set [2] is carrageenan edema of rat paw. The data set is described as follows: Carrageenan edema of rat paw. The data set is classed as in vivo, outbreed white rats. The conditions noted are these: rats; 10% ointment; 4 hours post carrageenan. The protocol: The tests were conducted on males of outbreed white rats weighing 250-270 grams. The model of carrageenan edema was used which model is described in Winter et al. In: DeRosa M., Giroud J. P. Willoughby D. A. Studies of the mediators of acute inflammatory response induced in rats in different sites by carrageenan and turpentine.//J. Pharmacol. 1971. V. 104. P. 15-29.
0.1 ml 1% carrageenan solution (SERVA) was subplantarly injected into a right paw of rats. The animals were placed into individual chambers. […] Paw volume was measured using a pletismometer (Ugo Besile) at 4 hours post carrageenan administration. Therapeutic effect of the ointment was assessed by the inhibition degree of inflammatory reaction as compared to an intact left paw of the given animal and to a paw reaction of a control (untreated) group of rats. Inhibition of inflammatory reaction expressed in percent was calculated according to the formula: […]
Background: In the carrageenan paw model, swelling and tenderness develop within hours.

Another data set has as its system "hot plate" test in mice. The data set is described as follows: Analgetic activity on the model "hot plate". The data set is classed as in vivo, white mongrel mice. The protocol: The tests were conducted on males of white mongrel mice weighing 22-24 grams. The animals were individually placed on a hot plate (manufactured by the firm “Ugo Basile”), a temperature of which remained constant and was equal to 55° C. The following first manifestations of pain reaction were recorded: licking paws, jumping up prior to administration of a substance (background parameters) and 0.5, 1, 2, 3 and 4 hours post administration of a substance. Substances were administered […] (using a probe). A weighed amount of a substance was thoroughly mixed in 0.1 ml Tween 80 until a solution was obtained, then normal saline was added up to a volume of 0.5 ml. Average latent time of nociception threshold (NT) was calculated in every group. The results obtained were expressed in percent of the background values. Analgetic effect (in %) was calculated according to the formula: A−100%=X, wherein A is a background parameter; X is analgetic effect (in %)
A is (time 0.5 to 4 hours post administration×100%): background time
As reference drugs, Analgin (150 mg/kg), Paracetamol (200 mg/kg), Ketorol (10 mg/kg), were used.

Data set [3] deals with "acetic contortions" in mice. Nature of the data set: Analgetic activity on the model "acetic contortions". The data set is classed as in vivo, white mongrel mice. The conditions noted are these: dose 10 mg/kg (table title). Here is the method: as §1
wherein Ck is the number of contortions in the control group,
Co is the number of contortions in the test group.

A further data set deals with cyclooxygenase. The data set is described as follows: In vitro effect on [14C]arachidonic acid metabolism in a cell-free homogenate of murine pulmonary tissue. It is filed as biochemical, CBA mice. The conditions noted are these: compound 10^−4 M, 37° C., 30 minutes. The protocol: Studies of arachidonic acid metabolism was carried out on females CBA mice who where fed a standard vivarium fodder. Animals (mice) were sacrificed, lungs were extracted, homogenized in a glass homogenizer manufactured by the firm “Wheaton” (USA) at 4° C. in 10 volumes of 0.05 M Tris-HCl buffer. Aliquots (0.5 ml) of supernatant were incubated in 0.5 μCi [1-C^14]-arachidonic acid [C^14]-AA, “Amersham”, England; specific activity 50-60 μCi/mmole) at 37° C. for 30 minutes. Non-metabolized [αC^14]-AA and products of metabolism thereof were extracted in 20 volumes of chloroform and methanol mixture (1:1) in extraction efficacy not less than 90% assessed using [C^14]-PGF2α. [C^14]-AA and metabolites thereof were separated and identified using TLC (the plates Kieselgel 60 of the “Merck” firm, Germany) using as an organic phase, the system of solvents (ethylacetate, isooctane, acetic acid, water—110:50:20:100) and labeled standards. Densitometry of autoradiochromograms obtained on the X-ray film X-Omat AR (“Kodak”, USA) and HS 11 (“ORWO”, Germany), was performed on the densiscan KS 3 (“Kipp and Zonnen”, Holland). Quantitative analysis of individual eicosanoids was carried out using radiometry of fractions obtained by high-performance liquid chromatography (the HPLC-system of the “Gilson” form, France; the column ZORBAX C8 of the “Du Pont” firm, USA) and by elution of spots on TLC-plates. The tested compounds were administered at concentration 10^−4 M.

Regarding `CNCCC(Oc1ccc(C(F)(F)F)cc1)c1ccccc1` (centres unmarked) [Fluoxetin, reference compound], the “% change from the control” value in the data set on mice, forced swimming is −33%.

For the molecule `O=C(Cc1ccccc1)N[C@@H](Cc1ccccc1)C(=O)O` [XIX, phenylacetylphenylalanine], the cellular differentiation entry in the data set with HL-60 cells was “inductor of cellular differentiation”.

Turning to `COc1cccc(C2(O)CCCCC2CN(C)C)c1` (centres unmarked) [Tramal, reference compound], the “Analgetic effect, %” value in data set [1] (IX 10 mg/kg, Tramal 10 mg/kg, alone or combined) is given as 53%.

Consider `COc1ccc2c(c1)c(CC(=O)O)c(C)n2C(=O)c1ccc(Cl)cc1` [Indomethacin, reference compound], for which the “Area of ulcerous lesion” value with gastric mucosa of rats is 7.3 ± 1.75 mm^2. Moreover, in data set [2], the “Edema inhibition (%)” value amounted to 50.0% and the “Paw volume gain (%)” value is 45.0%.

Consider `Cc1c(N(C)CS(=O)(=O)[O-])c(=O)n(-c2ccccc2)n1C.[Na+]` [Analgin, reference compound], for which, in data set [1] (Analgin 50 mg/kg alone), the “Analgetic effect, %” value amounted to 37.5% and the “Number of contortions for 15 minutes, M ± m” value worked out at 20.7 ± 2.3. Also, in the data set with "hot plate" test in mice (Analgin 150 mg/kg, 30 minutes), the “Analgesia (%)” value came out at 53.4%; the “Latent time of NT (%)” value came to 153.4%; the “latent time of nociception threshold, M ± m” value (“latent time … M ± m” below) turned out to be 7.44 ± 1.22 s. Further, in the data set with "hot plate" test in mice (Analgin 150 mg/kg, 60 minutes), the “Analgesia (%)” value is 50.3%; the “Latent time of NT (%)” value stood at 150.3%; the “latent time … M ± m” value is 7.29 ± 0.71 s. In the data set with "hot plate" test in mice (Analgin 150 mg/kg, 120 minutes), the “Analgesia (%)” value is 28.9%; the “Latent time of NT (%)” value was 128.9%; the “latent time … M ± m” value was determined as 6.25 ± 0.75 s. In the data set with "hot plate" test in mice (Analgin 150 mg/kg, 240 minutes), the “Analgesia (%)” value is 10.3%; the “Latent time of NT (%)” value was found to be 110.3%; the “latent time … M ± m” value is 5.35 ± 0.38 s.

As for `O=C(CCc1ccc(O)cc1)NCCc1ccc(O)cc1` [Compound X, 3-(p-hydroxyphenyl)-propionyltyramine], the inhibition in vivo at 10 mg/kg in data set [3] (Mus musculus, ip, 0.25 h, read-out: Analgetic effect (%)) stood at 54%. Also, in data set [3] (Mus musculus, ip, 0.25 h, read-out: C, % to the control), the response vs control in vivo at 10 mg/kg was determined as 46%. For the same molecule, the “C ± m (the number of contortions for 15 minutes)” value in data set [3] (60 minutes prior to acetic acid) is listed as 11.0 ± 2.4. Further, the Prostanoids with cyclooxygenase (b308 reads these as % cyclooxygenase inhibition) is −22. This molecule had a 6-keto-PGF1α in the data set on cyclooxygenase (change) of −9. Also, in the data set on cyclooxygenase (change), the “AA (arachidonic acid)” value was “+27”. The same molecule gave a PGE2 in the data set with cyclooxygenase (change) of −38. The molecule also came in with a PGF2α in the data set with cyclooxygenase (change) of −15. Besides, the TXB2 with cyclooxygenase (change) is −42. For the same molecule, the “Analgesia (%)” value was 75.3% in the data set with "hot plate" test in mice (10 mg/kg, 30 minutes); 33.8% with "hot plate" test in mice (10 mg/kg, 60 minutes); 97.7% in the data set on "hot plate" test in mice (10 mg/kg, 120 minutes); 100.6% in the data set with "hot plate" test in mice (10 mg/kg, 240 minutes). Besides, the “latent time … M ± m” value with "hot plate" test in mice (10 mg/kg, 30 minutes post administration) worked out at 7.54 ± 0.78 s; in the data set with "hot plate" test in mice (10 mg/kg, 60 minutes post administration) it was 5.75 ± 0.83 s; with "hot plate" test in mice (10 mg/kg, 120 minutes post administration), 8.50 ± 1.03 s; in the data set on "hot plate" test in mice (10 mg/kg, 240 minutes post administration), 8.84 ± 0.925 s. Also, the “Latent time of NT (%)” value in the data set on "hot plate" test in mice (10 mg/kg, 30 minutes, percent of background) came out at 175.3%; in the data set on "hot plate" test in mice (10 mg/kg, 60 minutes, percent of background), 133.7%; in the data set with "hot plate" test in mice (10 mg/kg, 120 minutes, percent of background) it was 197.7%; in the data set on "hot plate" test in mice (10 mg/kg, 240 minutes, percent of background), 200.6%.
